Results from patent US20110281852A1 (priority 2010, published 2011).
Read-outs that look alike come from different tables or passages of the source.

Columns and labels:
[1] = system: 3T3-L1 cells; test: Oil-Red-O staining and quantification, berberine with amentoflavone in 3T3-L1 (Example 6); type: cell-based, mouse; conditions: Mus musculus
Description: (§1) Oil-Red-O staining and quantification: Oil-Red-O Staining and its quantification were performed as previously reported. Briefly, medium was removed and cells were washed with PBS twice, fixed with 3.7% formalin at room temperature for 30 min, then rinsed with pure water, added 60% isopropanol and incubated for 5 minutes, then moved out isopropanol and stained cells with diluted Oil-Red-O solution (Oil-Red-O store solution (3 mg/ml in pure isopropanol): water=3:2) at room temperature for 10 min. Then the diluted Oil-Red-O solution was removed and cells were washed 3 times with pure water. After staining, the cells were washed twice with 70% ethanol to remove excess stain. Stained oil droplets in the cells were dissolved in isopropanol containing 4% Nonidet-P40 (Fisher Scientific, Pittsburgh, Pa., USA) shaking in 37° C. at speed 100 rpm for 1 hour, and OD values were measured at an absorbance of 490 nm and then normalized with control group.

[2] = MTT assay, 3T3-L1 viability during differentiation with clozapine, risperidone, berberine (Example 2); type: cell-based, mouse; conditions: mouse, 3T3-L1 cells during differentiation induction; read-out: reduction of cell viability
Description: (§2) Cell culture and drug treatment: 3T3-L1 cells (American Type Culture Collection, Manassas, Va., USA) were cultured at 37° C. in a humidified 5% CO2 atmosphere and grown in a DMEM (Sigma-Aldrich, St. Louis, Mo. USA) supplemented with 10% Fetal Bovine Serum (FBS, Atlanta Biologicals Corp., Lawrenceville, Ga., USA), 100 units/ml penicillin and 100 μg/ml streptomycin. Differentiation was induced by addition of 167 nM insulin, 520 μM isobutylmethylxanthine (IBMX), and 1 μM dexamethasone for 2 days and then only with 167 nM insulin for 6 days. Detailed protocol was described as our previous report (Hu et al., Phytomedicine (2009) 16(9):864-873).
(§3) Medium was removed after differentiation and treatment for 8 days, MTT (Methylthiazolyldiphenyl—tetrazolium bromide 0.5 mg/ml, 50 μl/well) was added.

[3] = system: 3T3-L1 cells; test: Oil-Red-O staining and quantification, clozapine/risperidone induced adipogenesis in 3T3-L1 (Example 2); type: cell-based, mouse; conditions: 8 days
Description: Detailed protocol was described as our previous report (Hu et al., Phytomedicine (2009) 16(9):864-873).
as §1, with “reported (Liu et al., Sinica (2004) 25:1052-1057).” for “reported.”, “water. Images were obtained using an Olympus IX70 inverted microscope equipped for phase-contrast microscopy (Olympus, Tokyo, Japan).” for “water.”

[4] = system: SREBP-1; test: Real-time RT-PCR, SREBP-1 mRNA in 3T3-L1; type: cell-based, mouse; conditions: 8 days
Description: (§4) Realtime RT-PCR: Real-time reverse transcriptase polymerase chain reaction (RT-PCR) analysis was used to measure mRNA expression of genes SREBP-1, PPARγ, C/EBPα, low density lipoprotein receptor (LDLR), Adiponectin, and fatty acid synthase (FAS) under the control of β-actin. Briefly, total RNA was isolated from 3T3-L1 cells following treatment for 8 days with Trizol reagent (Invitrogen, Carlsbad, Calif., USA) according to the manufacturer's instruction. RNA was quantified using absorption of light at 260 nm, and sample purity was checked by OD 260 nm/280 nm. 0.8 μg of total RNA from each sample was used for reverse transcription reaction using the TaqMan Reverse Transcription Reagents (Applied Biosystems, Foster City, Calif., USA) according to the manufacturers' instructions. PCR was done using the SYBR green Master Mix (Applied Biosystems, Foster City, Calif., USA) according to the manufacturers' instructions. The temperature cycling conditions of amplification were as follows: an initial step of denaturation at 95° C. for 10 min, 40 cycles of denaturation at 95° C. for 30 s, annealing at 55° C. for 30 s, and elongation at 72° C. for 30 s. Realtime RT-PCR was performed using Mx3000P Realtime Thermocyclers (Statagene, La Jolla, Calif., USA). The relative mRNA levels of these genes were calculated by 2-delta delta CT method and normalized with control groups.

[5] = system: PPARγ; test: Real-time RT-PCR, PPARγ mRNA in 3T3-L1; type: cell-based, mouse; conditions: 15 μM clozapine, 8 days
Description: as §4

[6] = system: C/EBPα; test: Real-time RT-PCR, C/EBPα mRNA in 3T3-L1; type: cell-based, mouse; conditions: 8 days
Description: as §4

[7] = system: low density lipoprotein receptor (LDLR); test: Real-time RT-PCR, LDLR mRNA in 3T3-L1; type: cell-based, mouse; conditions: 8 days
Description: as §4

[8] = system: Adiponectin; test: Real-time RT-PCR, Adiponectin mRNA in 3T3-L1; type: cell-based, mouse; conditions: 8 days
Description: as §4

[9] = in vivo; cited from earlier work
[10] = system: 3T3-L1 cells; test: MTT assay, 3T3-L1 viability during differentiation with clozapine, risperidone, berberine (Example 2); type: cell-based, mouse; conditions: day 8 of differentiation
Description: as §2, §3

[11] = system: fatty acid synthase (FAS); test: Real-time RT-PCR, FAS mRNA in 3T3-L1; type: cell-based, mouse; conditions: 50 μM risperidone, 8 days
Description: as §4

[12] = over 10 weeks of treatment; cited from earlier work

O=c1cc(-c2ccc(O)c(-c3c(O)cc(O)c4c(=O)cc(-c5ccc(O)cc5)oc34)c2)oc2cc(O)cc(O)c12 [amentoflavone, reference compound]
inhibition at 25 µM ([1]; 3T3-L1, read-out: enhancement of the inhibitory effects of berberine, 25 μM amentoflavone added to 4 μM berberine, with 15 μM clozapine): 10.1% | inhibition at 25 µM ([1]; 3T3-L1, read-out: enhancement of the inhibitory effects of berberine, 25 μM amentoflavone added to 8 μM berberine, with 15 μM clozapine): 7.8%

CN1CCN(C2=Nc3cc(Cl)ccc3Nc3ccccc32)CC1 [clozapine, reference compound]
cytotoxicity at 8 days, 15 μM [2]: 6.2% | cytotoxicity at 8 days, 30 μM [2]: 12.5% | induced adipogenesis vs vehicle treated group ([3]; 15 μM clozapine): 37.4% | induced adipogenesis vs vehicle treated group ([3]; 30 μM clozapine): 25.2% | increase of SREBP-1 mRNA expression vs control group ([4]; 15 μM clozapine): 27.6% | increase of PPARγ mRNA expression vs control group [5]: 68.3% | increase of C/EBPα mRNA expression vs control group ([6]; 15 μM clozapine): 45.7% | increase of LDLR mRNA expression vs control group ([7]; 15 μM clozapine): 63.1% | increase of adiponectin mRNA expression vs control group ([8]; 15 μM clozapine): 45.5%

CN(C)C(=N)N=C(N)N [metformin]
effect in antipsychotic-induced weight gain [9]: no statistically significant effect

CCCCCCCCCCC[C@@H](C[C@@H]1OC(=O)[C@H]1CCCCCC)OC(=O)[C@H](CC(C)C)NC=O [orlistat]
effect in antipsychotic-induced weight gain [9]: no statistically significant effect

Cc1nc2n(c(=O)c1CCN1CCC(c3noc4cc(F)ccc34)CC1)CCCC2 [risperidone, reference compound]
enhancement of cell viability ([10]; printed 'for 15 μM clozapine treatment'): 14% | enhancement of cell viability ([10]; printed 'for 30 μM clozapine treatment'): 16.8% | induced adipogenesis vs vehicle treated group ([3]; 25 μM risperidone): 14.1% | induced adipogenesis vs vehicle treated group ([3]; 50 μM risperidone): 26.5% | increase of SREBP-1 mRNA expression vs control group ([4]; 50 μM risperidone): 133.5% | increase of C/EBPα mRNA expression vs control group ([6]; 50 μM risperidone): 48.8% | increase of LDLR mRNA expression vs control group ([7]; 50 μM risperidone): 61.5% | increase of adiponectin mRNA expression vs control group ([8]; 50 μM risperidone): 63.8% | increase of FAS mRNA expression vs control group [11]: 34.4% | weight gain [12]: ~2 kg

CC(C)CC(N(C)C)C1(c2ccc(Cl)cc2)CCC1 (stereo not drawn) [sibutramine]
effect in antipsychotic-induced weight gain [9]: no statistically significant effect
